Results from EP4745135A1 (Gluetacs Therapeutics (Shanghai) Co., Ltd., priority 2023, dated 2025).

Assays:
IKZF3 = target: T1, IKZF3 (Homo sapiens, UniProt Q96SW2+Q9UKT9); experiment: Western blot, degradation of substrate protein in hPBMCs; type: cell-based; settings: Western blot, 24 hours of compound treatment, compounds tested at 50 nM and 500 nM (concentration for the table not stated)
T1 construct: effects of the compounds of the present disclosure on the expression of target proteins in cells; endogenous in cells; host or cells: human PBMCs (Milecell Biotechnologies)

WEE1 = target: T2, WEE1 (Homo sapiens, UniProt P30291+Q96SW2); experiment: as above; type: cell-based; settings: Western blot, 24 hours of compound treatment, compounds tested at 50 nM and 500 nM (concentration for the table not stated)
T2 construct: effects of the compounds of the present disclosure on the expression of target proteins in cells; endogenous in cells; host or cells: human PBMCs (Milecell Biotechnologies)

IKZF2 = target: T3, IKZF2 (Homo sapiens, UniProt Q96SW2+Q9UKS7); experiment: as above; type: cell-based; settings: Western blot, 24 hours of compound treatment, compounds tested at 50 nM and 500 nM (concentration for the table not stated)
T3 construct: effects of the compounds of the present disclosure on the expression of target proteins in cells; endogenous in cells; host or cells: human PBMCs (Milecell Biotechnologies)

IKZF1 = target: T4, IKZF1 (Homo sapiens, UniProt Q13422+Q96SW2); experiment: as above; type: cell-based; settings: Western blot, 24 hours of compound treatment, compounds tested at 50 nM and 500 nM (concentration for the table not stated)
T4 construct: effects of the compounds of the present disclosure on the expression of target proteins in cells; endogenous in cells; host or cells: human PBMCs (Milecell Biotechnologies)

CK1α = target: T5, CK1α (Homo sapiens, UniProt P48729+Q96SW2); experiment: as above; type: cell-based; settings: Western blot, 24 hours of compound treatment, compounds tested at 50 nM and 500 nM (concentration for the table not stated)
T5 construct: effects of the compounds of the present disclosure on the expression of target proteins in cells; endogenous in cells; host or cells: human PBMCs (Milecell Biotechnologies)

[1] = target: T6, human Cereblon WT GST-tagged protein (Homo sapiens, UniProt Q96SW2); experiment: CRBN-binding affinity, HTRF (CEREBLON BINDING kit); settings: for inhibition at 0.5 µM: read-out: Inhibition Rate at 0.5 µM (%); for inhibition at 2 µM: read-out: Inhibition Rate at 2 µM (%)
T6 construct: purchased CISBIO 64BDCRBNPEH

GSPT1 = experiment: Western blot, degradation of substrate protein in hPBMCs; type: cell-based, Human; settings: Western blot, 24 hours of compound treatment, compounds tested at 50 nM and 500 nM (concentration for the table not stated)

T1 sequence (Q9UKT9 whole entry): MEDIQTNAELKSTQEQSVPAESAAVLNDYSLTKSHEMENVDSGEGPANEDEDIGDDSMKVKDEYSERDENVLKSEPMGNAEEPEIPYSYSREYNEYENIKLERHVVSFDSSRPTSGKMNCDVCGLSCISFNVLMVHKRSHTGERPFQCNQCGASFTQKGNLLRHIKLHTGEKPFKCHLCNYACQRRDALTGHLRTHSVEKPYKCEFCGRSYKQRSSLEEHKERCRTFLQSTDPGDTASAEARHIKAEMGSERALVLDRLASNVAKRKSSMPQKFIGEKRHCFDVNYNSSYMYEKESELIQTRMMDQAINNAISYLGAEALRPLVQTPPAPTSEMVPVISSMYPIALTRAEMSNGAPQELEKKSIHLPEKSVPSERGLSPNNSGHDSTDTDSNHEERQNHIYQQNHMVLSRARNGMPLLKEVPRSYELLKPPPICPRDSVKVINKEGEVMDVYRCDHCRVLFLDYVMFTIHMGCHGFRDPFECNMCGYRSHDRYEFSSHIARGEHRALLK
T1 sequence (Q96SW2 whole entry): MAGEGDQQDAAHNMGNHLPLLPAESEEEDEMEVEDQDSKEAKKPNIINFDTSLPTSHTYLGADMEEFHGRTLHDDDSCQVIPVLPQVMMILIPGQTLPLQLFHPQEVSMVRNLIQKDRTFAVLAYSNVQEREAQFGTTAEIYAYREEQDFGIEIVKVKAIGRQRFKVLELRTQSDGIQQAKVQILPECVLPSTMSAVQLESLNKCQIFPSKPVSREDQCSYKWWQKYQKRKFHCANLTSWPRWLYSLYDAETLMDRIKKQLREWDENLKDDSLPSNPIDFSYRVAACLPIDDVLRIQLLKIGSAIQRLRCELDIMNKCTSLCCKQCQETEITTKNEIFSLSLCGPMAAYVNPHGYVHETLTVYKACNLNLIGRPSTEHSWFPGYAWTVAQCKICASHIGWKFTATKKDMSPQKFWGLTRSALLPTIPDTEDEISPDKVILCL
T1 sequence (Q16531 whole entry partner): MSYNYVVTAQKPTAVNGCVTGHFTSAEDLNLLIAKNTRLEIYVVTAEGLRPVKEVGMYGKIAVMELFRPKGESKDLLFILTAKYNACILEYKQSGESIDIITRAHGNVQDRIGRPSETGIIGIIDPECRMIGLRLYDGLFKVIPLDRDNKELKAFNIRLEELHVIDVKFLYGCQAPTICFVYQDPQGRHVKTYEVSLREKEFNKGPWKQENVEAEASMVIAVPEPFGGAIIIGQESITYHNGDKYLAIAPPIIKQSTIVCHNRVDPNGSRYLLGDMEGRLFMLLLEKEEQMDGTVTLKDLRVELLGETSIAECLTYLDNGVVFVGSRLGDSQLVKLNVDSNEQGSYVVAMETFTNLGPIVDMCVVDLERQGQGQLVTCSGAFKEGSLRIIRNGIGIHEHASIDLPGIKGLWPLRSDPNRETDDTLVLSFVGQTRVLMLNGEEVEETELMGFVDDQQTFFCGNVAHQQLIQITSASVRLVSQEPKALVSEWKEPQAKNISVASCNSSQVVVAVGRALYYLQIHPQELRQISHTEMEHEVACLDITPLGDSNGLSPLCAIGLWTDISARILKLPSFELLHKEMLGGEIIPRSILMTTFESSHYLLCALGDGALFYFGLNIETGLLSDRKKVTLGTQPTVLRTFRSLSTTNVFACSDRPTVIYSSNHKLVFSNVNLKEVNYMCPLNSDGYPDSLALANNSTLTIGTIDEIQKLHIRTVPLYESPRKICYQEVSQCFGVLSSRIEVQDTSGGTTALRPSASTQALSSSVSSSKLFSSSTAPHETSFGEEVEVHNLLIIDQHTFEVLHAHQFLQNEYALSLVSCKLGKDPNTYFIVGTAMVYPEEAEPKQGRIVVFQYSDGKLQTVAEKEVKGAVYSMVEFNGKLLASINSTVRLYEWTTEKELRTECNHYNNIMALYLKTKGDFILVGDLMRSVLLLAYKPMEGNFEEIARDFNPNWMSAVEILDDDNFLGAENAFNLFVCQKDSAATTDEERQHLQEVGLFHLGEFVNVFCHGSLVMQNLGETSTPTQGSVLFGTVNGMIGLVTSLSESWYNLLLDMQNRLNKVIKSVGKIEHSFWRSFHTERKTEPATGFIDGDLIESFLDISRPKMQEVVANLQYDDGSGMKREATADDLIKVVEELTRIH
T2 sequence (P30291 whole entry): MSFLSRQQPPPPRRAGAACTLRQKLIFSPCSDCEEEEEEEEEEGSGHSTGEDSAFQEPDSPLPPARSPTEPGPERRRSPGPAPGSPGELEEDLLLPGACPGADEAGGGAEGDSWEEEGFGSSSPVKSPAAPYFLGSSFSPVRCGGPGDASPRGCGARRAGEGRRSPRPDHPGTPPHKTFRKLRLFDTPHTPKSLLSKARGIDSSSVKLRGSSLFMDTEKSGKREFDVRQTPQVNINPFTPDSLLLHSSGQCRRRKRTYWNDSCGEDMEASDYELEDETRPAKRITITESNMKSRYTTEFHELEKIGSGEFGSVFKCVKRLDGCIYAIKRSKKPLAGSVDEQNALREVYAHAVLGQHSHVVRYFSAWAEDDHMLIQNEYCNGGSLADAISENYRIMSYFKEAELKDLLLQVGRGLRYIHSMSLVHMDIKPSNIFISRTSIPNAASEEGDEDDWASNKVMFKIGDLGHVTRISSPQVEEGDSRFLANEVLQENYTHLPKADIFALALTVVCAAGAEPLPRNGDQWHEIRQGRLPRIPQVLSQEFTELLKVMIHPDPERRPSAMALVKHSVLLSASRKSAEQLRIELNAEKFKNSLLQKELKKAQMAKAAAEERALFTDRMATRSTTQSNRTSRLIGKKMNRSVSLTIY
T2 sequence (Q96SW2 whole entry): as the sequence (Q96SW2 whole entry) above
T2 sequence (Q16531 whole entry partner): as the sequence (Q16531 whole entry partner) above
T5 sequence (P48729 whole entry): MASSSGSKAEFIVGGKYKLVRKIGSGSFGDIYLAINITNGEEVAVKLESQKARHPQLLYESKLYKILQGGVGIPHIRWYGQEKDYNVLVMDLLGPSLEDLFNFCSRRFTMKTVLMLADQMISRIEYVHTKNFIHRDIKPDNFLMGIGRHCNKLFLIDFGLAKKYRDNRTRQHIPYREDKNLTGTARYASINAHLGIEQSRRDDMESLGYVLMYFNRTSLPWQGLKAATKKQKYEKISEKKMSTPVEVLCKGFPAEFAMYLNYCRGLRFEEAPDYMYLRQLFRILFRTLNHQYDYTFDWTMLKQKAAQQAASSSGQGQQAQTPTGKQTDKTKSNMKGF
T5 sequence (Q96SW2 whole entry): as the sequence (Q96SW2 whole entry) above
T5 sequence (Q16531 whole entry partner): as the sequence (Q16531 whole entry partner) above
T3 sequence (Q9UKS7 whole entry): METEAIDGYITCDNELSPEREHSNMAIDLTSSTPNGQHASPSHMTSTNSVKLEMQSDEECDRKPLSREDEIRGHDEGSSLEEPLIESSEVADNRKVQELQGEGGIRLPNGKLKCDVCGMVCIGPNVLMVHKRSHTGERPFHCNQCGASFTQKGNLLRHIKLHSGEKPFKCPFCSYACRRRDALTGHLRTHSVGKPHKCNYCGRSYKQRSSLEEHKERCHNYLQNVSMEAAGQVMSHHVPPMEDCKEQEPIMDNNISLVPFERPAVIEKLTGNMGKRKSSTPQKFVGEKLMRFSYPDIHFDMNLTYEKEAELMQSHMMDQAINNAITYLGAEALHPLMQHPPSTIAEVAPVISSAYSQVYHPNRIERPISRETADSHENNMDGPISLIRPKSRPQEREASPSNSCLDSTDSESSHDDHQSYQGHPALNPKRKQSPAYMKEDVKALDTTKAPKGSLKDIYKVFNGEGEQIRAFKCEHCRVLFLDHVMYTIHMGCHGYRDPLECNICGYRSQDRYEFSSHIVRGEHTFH
T3 sequence (Q96SW2 whole entry): as the sequence (Q96SW2 whole entry) above
T3 sequence (Q16531 whole entry partner): as the sequence (Q16531 whole entry partner) above
T4 sequence (Q13422 whole entry): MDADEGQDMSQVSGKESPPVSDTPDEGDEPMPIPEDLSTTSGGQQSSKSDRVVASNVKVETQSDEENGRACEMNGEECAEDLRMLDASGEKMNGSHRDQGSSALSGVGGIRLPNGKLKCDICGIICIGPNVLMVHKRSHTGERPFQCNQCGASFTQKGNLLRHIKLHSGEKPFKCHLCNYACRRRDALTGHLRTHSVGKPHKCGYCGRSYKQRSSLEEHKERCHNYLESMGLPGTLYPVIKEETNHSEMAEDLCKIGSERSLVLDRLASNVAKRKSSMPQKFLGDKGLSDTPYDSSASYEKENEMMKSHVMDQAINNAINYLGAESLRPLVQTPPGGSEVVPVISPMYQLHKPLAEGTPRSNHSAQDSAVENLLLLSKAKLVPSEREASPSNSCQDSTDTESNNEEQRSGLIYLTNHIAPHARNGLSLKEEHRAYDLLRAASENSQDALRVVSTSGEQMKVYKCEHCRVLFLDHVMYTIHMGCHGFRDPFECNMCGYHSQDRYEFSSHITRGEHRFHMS
T4 sequence (Q96SW2 whole entry): as the sequence (Q96SW2 whole entry) above
T4 sequence (Q16531 whole entry partner): as the sequence (Q16531 whole entry partner) above
T6 sequence (Q96SW2 whole entry): as the sequence (Q96SW2 whole entry) above

inhibition at 0.5 µM [1] [%] | inhibition at 2 µM [1] [%] | Compound | IKZF3 substrate protein remaining % (IKZF3) | Wee1 substrate protein remaining % (WEE1) | IKZF2 substrate protein remaining % (IKZF2) | IKZF 1 substrate protein remaining % (IKZF1) | CK1α substrate protein remaining % (CK1α) | GSPT1 substrate protein remaining % (GSPT1)
30 to 40 | 60 to 80 | O=C1CCC(N2Cc3c(CN4CCN(C(c5ccccc5)c5ccccc5)CC4)cccc3C2=S)C(=O)N1 (stereo not drawn) [GT-08191, 3-(4-((4-benzhydrylpiperazin-1-yl)methyl)-1-thioxoisoindolin-2-yl)piperidine-2,6-dione] | B (80%< substrate protein remaining %≤ 100%) | B (80%< substrate protein remaining %≤ 100%) | B (80%< substrate protein remaining %≤ 100%) | B (80%< substrate protein remaining %≤ 100%) | B (80%< substrate protein remaining %≤ 100%) | A (0% ≤ substrate protein remaining % ≤ 80%)
30 to 40 | 53 to 60 | O=C1CCC(N2Cc3c(CN4CCN(C(c5ccc(Cl)cc5)c5ccc(Cl)cc5)CC4)cccc3C2=S)C(=O)N1 (stereo not drawn) [GT-08203, 3-(4-((4-(bis(4-chlorophenyl)methyl)piperazin-1-yl)methyl)-1-thioxoisoindolin-2-yl)piperidine-2,6-dione] | A (0% ≤ substrate protein remaining % ≤ 80%) | A (0% ≤ substrate protein remaining % ≤ 80%) | A (0% ≤ substrate protein remaining % ≤ 80%) | B (80%< substrate protein remaining %≤ 100%) | B (80%< substrate protein remaining %≤ 100%) | A (0% ≤ substrate protein remaining % ≤ 80%)
40 to 53 | 80 to 100 | O=C1CCC(N2Cc3c(CN4C[C@H]5C[C@@H]4CN5C(c4ccccc4)c4ccccc4)cccc3C2=S)C(=O)N1 (stereo partly drawn) [GT-08208, 3-(4-(((1R,4R)-5-benzhydryl-2,5-diazabicyclo[2.2.1]heptan-2-yl)methyl)-1-thioxoisoindolin-2-yl)piperidine-2,6-dione] | B (80%< substrate protein remaining %≤ 100%) | A (0% ≤ substrate protein remaining % ≤ 80%) | A (0% ≤ substrate protein remaining % ≤ 80%) | B (80%< substrate protein remaining %≤ 100%) | B (80%< substrate protein remaining %≤ 100%) | A (0% ≤ substrate protein remaining % ≤ 80%)
53 to 60 | 60 to 80 | CC1(C)CN(Cc2cccc3c2CN(C2CCC(=O)NC2=O)C3=S)CCN1C(c1ccccc1)c1ccccc1 (stereo not drawn) [GT-08231, 3-(4-((4-benzhydryl-3,3-dimethylpiperazin-1-yl)methyl)-1-thioxoisoindolin-2-yl)piperidine-2,6-dione] | B (80%< substrate protein remaining %≤ 100%) | A (0% ≤ substrate protein remaining % ≤ 80%) | A (0% ≤ substrate protein remaining % ≤ 80%) | B (80%< substrate protein remaining %≤ 100%) | B (80%< substrate protein remaining %≤ 100%) | A (0% ≤ substrate protein remaining % ≤ 80%)
40 to 53 | 80 to 100 | C[C@@H]1CN(C(c2ccccc2)c2ccccc2)CCN1Cc1cccc2c1CN(C1CCC(=O)NC1=O)C2=S (stereo partly drawn) [GT-08232, 3-(4-(((R)-4-benzhydryl-2-methylpiperazin-1-yl)methyl)-1-thioxoisoindolin-2-yl)piperidine-2,6-dione] | B (80%< substrate protein remaining %≤ 100%) | A (0% ≤ substrate protein remaining % ≤ 80%) | A (0% ≤ substrate protein remaining % ≤ 80%) | B (80%< substrate protein remaining %≤ 100%) | B (80%< substrate protein remaining %≤ 100%) | A (0% ≤ substrate protein remaining % ≤ 80%)
40 to 53 | 60 to 80 | O=C1CCC(N2Cc3c(CN4CCN(c5ccccc5)CC4)cccc3C2=S)C(=O)N1 (stereo not drawn) [GT-08259, 3-(4-((4-phenylpiperazin-1-yl)methyl)-1-thioxoisoindolin-2-yl)piperidine-2,6-dione] | B (80%< substrate protein remaining %≤ 100%) | A (0% ≤ substrate protein remaining % ≤ 80%) | B (80%< substrate protein remaining %≤ 100%) | B (80%< substrate protein remaining %≤ 100%) | B (80%< substrate protein remaining %≤ 100%) | A (0% ≤ substrate protein remaining % ≤ 80%)
40 to 53 | 80 to 100 | O=C1CCC(N2Cc3c(CN4CCN(c5ccc(F)cc5)CC4)cccc3C2=S)C(=O)N1 (stereo not drawn) [GT-08264, 3-(4-((4-(4-fluorophenyl)piperazin-1-yl)methyl)-1-thioxoisoindolin-2-yl)piperidine-2,6-dione] | A (0% ≤ substrate protein remaining % ≤ 80%) | A (0% ≤ substrate protein remaining % ≤ 80%) | B (80%< substrate protein remaining %≤ 100%) | B (80%< substrate protein remaining %≤ 100%) | A (0% ≤ substrate protein remaining % ≤ 80%) | A (0% ≤ substrate protein remaining % ≤ 80%)

Compound | inhibition at 0.5 µM [1] [%] | inhibition at 2 µM [1] [%] | IKZF3 substrate protein remaining % (IKZF3) | Wee1 substrate protein remaining % (WEE1) | IKZF2 substrate protein remaining % (IKZF2) | IKZF 1 substrate protein remaining % (IKZF1) | CK1α substrate protein remaining % (CK1α) | GSPT1 substrate protein remaining % (GSPT1)
O=C1CCC(N2Cc3c(CN4CCC(N(c5ccccc5)c5ccccc5)CC4)cccc3C2=S)C(=O)N1 (stereo not drawn) [GT-08209, 3-(4-((4-(diphenylamino)piperidin-1-yl)methyl)-1-thioxoisoindolin-2-yl)piperidine-2,6-dione] | 60 to 80 | 80 to 100 | B (80%< substrate protein remaining %≤ 100%) | A (0% ≤ substrate protein remaining % ≤ 80%) | B (80%< substrate protein remaining %≤ 100%) | B (80%< substrate protein remaining %≤ 100%) | B (80%< substrate protein remaining %≤ 100%) | A (0% ≤ substrate protein remaining % ≤ 80%)
O=C1CCC(N2Cc3c(CN4C5CCC4CN(C(c4ccccc4)c4ccccc4)C5)cccc3C2=S)C(=O)N1 (stereo not drawn) [GT-08235, 3-(4-((3-benzhydryl-3,8-diazabicyclo[3.2.1]octan-8-yl)methyl)-1-thioxoisoindolin-2-yl)piperidine-2,6-dione] | 40 to 53 | 80 to 100 | B (80%< substrate protein remaining %≤ 100%) | B (80%< substrate protein remaining %≤ 100%) | B (80%< substrate protein remaining %≤ 100%) | B (80%< substrate protein remaining %≤ 100%) | B (80%< substrate protein remaining %≤ 100%) | A (0% ≤ substrate protein remaining % ≤ 80%)
